In patent US11771709B2, “ALK protein degradation agent and anti-tumor application thereof” (ShanghaiTech University, priority 2017, dated 2023):

What was measured:
[1] = tested on: SR (NPM-ALK) cells; test: Growth inhibition IC50 in ALCL SR cells (CCK8/WST, 72 hours); assay type: cell-based; conditions: SR cells, WST
Experimental: SR (NPM-ALK) and NCI-H2228 (EML4-ALK, V3) cells were purchased from ATCC. […] All Cells were cultured in RPMI1640 medium with 10% FBS and Penicillin-Streptomycin in 37° C. incubator with 5% CO2.
Cells were seeded at specific density in 96 well plates one day before treatment. […] Viable cells were measured via CCK8 reagent and IC50s were calculated via Prism Graphad. Experiments were repeated at least three times.

[2] = target: T1, ALK protein in H3122 (EML4-ALK) cells (Homo sapiens, UniProt Q9UM73); test: Western blot of ALK protein level (degradation, DC50), ALK phosphorylation and downstream signaling in H3122 cells; assay type: cell-based; conditions: for DC50: ALK protein degradation in H3122 cells; for phosphorylation of AKT and ERK / ALK protein level / degradation: H3122 cells, western blot; for ALK protein level / degradation: up to 500 nM
T1 construct: EML4 (Echinoderm microtubule-associated protein-like 4, Q9HC35) fusion partner, variant 1; host or cells: NCI-H3122 lung adenocarcinoma cells; the other entry of the earlier key: EML4 (Q9HC35, Echinoderm microtubule-associated protein-like 4)
T1 sequence (Q9UM73 with tags, fused parts or gaps): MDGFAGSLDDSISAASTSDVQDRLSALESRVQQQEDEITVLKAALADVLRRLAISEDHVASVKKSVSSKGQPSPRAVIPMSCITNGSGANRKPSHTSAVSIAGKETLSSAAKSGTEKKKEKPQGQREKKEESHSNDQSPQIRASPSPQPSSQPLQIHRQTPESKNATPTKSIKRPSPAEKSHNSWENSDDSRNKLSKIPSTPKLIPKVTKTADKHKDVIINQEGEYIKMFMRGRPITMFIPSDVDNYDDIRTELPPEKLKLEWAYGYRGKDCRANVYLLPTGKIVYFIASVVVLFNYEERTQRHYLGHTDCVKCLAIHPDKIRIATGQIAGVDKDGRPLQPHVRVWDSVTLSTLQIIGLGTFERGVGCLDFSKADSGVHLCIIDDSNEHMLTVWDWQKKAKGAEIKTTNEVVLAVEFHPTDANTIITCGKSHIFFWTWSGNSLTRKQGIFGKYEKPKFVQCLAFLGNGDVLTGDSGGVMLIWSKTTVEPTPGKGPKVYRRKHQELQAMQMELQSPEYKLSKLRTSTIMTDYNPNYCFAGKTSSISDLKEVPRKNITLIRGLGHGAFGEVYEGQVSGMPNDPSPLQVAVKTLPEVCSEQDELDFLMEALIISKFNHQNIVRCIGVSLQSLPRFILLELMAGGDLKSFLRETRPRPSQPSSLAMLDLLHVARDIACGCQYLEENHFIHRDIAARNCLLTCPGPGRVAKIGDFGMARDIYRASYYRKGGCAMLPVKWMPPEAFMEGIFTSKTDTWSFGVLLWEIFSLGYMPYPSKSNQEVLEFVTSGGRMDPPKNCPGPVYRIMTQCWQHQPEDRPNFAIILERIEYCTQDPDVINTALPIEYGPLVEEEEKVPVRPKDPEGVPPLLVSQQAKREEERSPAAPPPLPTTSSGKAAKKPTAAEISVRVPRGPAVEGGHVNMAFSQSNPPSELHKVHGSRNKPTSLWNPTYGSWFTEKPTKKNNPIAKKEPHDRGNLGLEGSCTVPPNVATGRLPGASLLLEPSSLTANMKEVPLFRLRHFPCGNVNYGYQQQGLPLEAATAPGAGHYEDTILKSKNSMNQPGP

[3] = 72 h, Brigatinib-based PROTAD molecules (Table 3)
[4] = Alectinib based ALK PROTAD compounds (Table 4)

Structure (SMILES)	IC50 [1, 3] [nM]	DC50 [2] [nM]	IC50 [1, 4] [nM]	phosphorylation of AKT and ERK [2]	ALK protein level / degradation [2]
COc1cc(N2CCC(NC(=O)CCCCNc3cccc4c3C(=O)N(C3CCC(=O)NC3=O)C4=O)CC2)ccc1Nc1ncc(Cl)c(Nc2ccccc2P(C)(C)=O)n1 (stereo not drawn) [SIAIS151119, N-(1-(4-((5-chloro-4-((2-(dimethylphosphoryl)phenyl)amino)pyrimidin-2-yl)amino)-3-methoxyphenyl)piperidin-4-yl)-5-((2-(2,6-dioxopiperidin-3-yl)-1,3-dioxoisoindolin-4-yl)amino)pentanamide]	1.6 ± 1	100 to 500			
COc1cc(N2CCC(NC(=O)CNc3cccc4c3C(=O)N(C3CCC(=O)NC3=O)C4=O)CC2)ccc1Nc1ncc(Cl)c(Nc2ccccc2P(C)(C)=O)n1 (stereo not drawn) [SIAIS151120, N-(1-(4-((5-chloro-4-((2-(dimethylphosphoryl)phenyl)amino)pyrimidin-2-yl)amino)-3-methoxyphenyl)piperidin-4-yl)-2-((2-(2,6-dioxopiperidin-3-yl)-1,3-dioxoisoindolin-4-yl)amino)acetamide]	11.4 ± 7.8	20 to 100			
COc1cc(N2CCC(NC(=O)CCNc3cccc4c3C(=O)N(C3CCC(=O)NC3=O)C4=O)CC2)ccc1Nc1ncc(Cl)c(Nc2ccccc2P(C)(C)=O)n1 (stereo not drawn) [SIAIS151121, N-(1-(4-((5-chloro-4-((2-(dimethylphosphoryl)phenyl)amino)pyrimidin-2-yl)amino)-3-methoxyphenyl)piperidin-4-yl)-3-((2-(2,6-dioxopiperidin-3-yl)-1,3-dioxoisoindolin-4-yl)amino)propenamide]	20.4 ± 8.5	100 to 500			
COc1cc(N2CCC(NC(=O)CCOCCOCCC(=O)N[C@H](C(=O)N3C[C@H](O)C[C@H]3C(=O)NCc3ccc(-c4scnc4C)cc3)C(C)(C)C)CC2)ccc1Nc1ncc(Cl)c(Nc2ccccc2P(C)(C)=O)n1 [SIAIS151124, (2S,4R)-1-((S)-2-(3-(2-(3-((1-(4-((5-chloro-4-((2-(dimethylphosphoryl)phenyl)amino)pyrimidin-2-yl)amino)-3-methoxyphenyl)piperidin-4-yl)amino)-3-oxopropoxy)ethoxy)propanamido)-3,3-dimethylbutanoyl)-4-hydroxy-N-(4-(4-methylthiazol-5-yl)benzyl)pyrrolidine-2-carboxamide]	76.9 ± 15.9	100 to 500			
COc1cc(N2CCC(NC(=O)CCOCCOCCOCCC(=O)N[C@H](C(=O)N3C[C@H](O)C[C@H]3C(=O)NCc3ccc(-c4scnc4C)cc3)C(C)(C)C)CC2)ccc1Nc1ncc(Cl)c(Nc2ccccc2P(C)(C)=O)n1 [SIAIS151125, (2S,4R)-1-((S)-2-(tert-butyl)-16-((1-(4-((5-chloro-4-((2-(dimethylphosphoryl)phenyl)amino)pyrimidin-2-yl)amino)-3-methoxyphenyl)piperidin-4-yl)amino)-4,16-dioxo-7,10,13-trioxa-3-azahexadecanoyl)-4-hydroxy-N-(4-(4-methylthiazol-5-yl)benzyl)pyrrolidine-2-carboxamide]	61.9 ± 30.5	100 to 500			
COc1cc(N2CCC(NC(=O)CCOCCOCCOCCOCCC(=O)N[C@H](C(=O)N3C[C@H](O)C[C@H]3C(=O)NCc3ccc(-c4scnc4C)cc3)C(C)(C)C)CC2)ccc1Nc1ncc(Cl)c(Nc2ccccc2P(C)(C)=O)n1 [SIAIS151126, N1-(1-(4-((5-chloro-4-((2-(dimethylphosphoryl)phenyl)amino)pyrimidin-2-yl)amino)-3-methoxyphenyl)piperidin-4-yl)-N16-((S)-1-((2S,4R)-4-hydroxy-2-((4-(4-methylthiazol-5-yl)benzyl)carbamoyl)pyrrolidin-1-yl)-3,3-dimethyl-1-oxobutan-2-yl)-4,7,10,13-tetraoxahexadecanediamide]	31.9 ± 11.9	100 to 500			
COc1cc(N2CCC(NC(=O)CCOCCOCCOCCOCCOCCC(=O)N[C@H](C(=O)N3C[C@H](O)C[C@H]3C(=O)NCc3ccc(-c4scnc4C)cc3)C(C)(C)C)CC2)ccc1Nc1ncc(Cl)c(Nc2ccccc2P(C)(C)=O)n1 [SIAIS151127, N1-(1-(4-((5-chloro-4-((2-(dimethylphosphoryl)phenyl)amino)pyrimidin-2-yl)amino)-3-methoxyphenyl)piperidin-4-yl)-N19-((S)-1-((2S,4R)-4-hydroxy-2-((4-(4-methylthiazol-5-yl)benzyl)carbamoyl)pyrrolidin-1-yl)-3,3-dimethyl-1-oxobutan-2-yl)-4,7,10,13,16-pentaoxanonadecanediamide]	36.4 ± 23.5	20 to 100			
COc1cc(N2CCC(NC(=O)COCCOCC(=O)N[C@H](C(=O)N3C[C@H](O)C[C@H]3C(=O)NCc3ccc(-c4scnc4C)cc3)C(C)(C)C)CC2)ccc1Nc1ncc(Cl)c(Nc2ccccc2P(C)(C)=O)n1 [SIAIS151128, (2S,4R)-1-((S)-2-(2-(2-(2-((1-(4-((5-chloro-4-((2-(dimethylphosphoryl)phenyl)amino)pyrimidin-2-yl)amino)-3-methoxyphenyl)piperidin-4-yl)amino)-2-oxoethoxy)ethoxy)acetamido)-3,3-dimethylbutanoyl)-4-hydroxy-N-(4-(4-methylthiazol-5-yl)benzyl)pyrrolidine-2-carboxamide]	6.3 ± 0.2	100 to 500			
CCc1cc2c(cc1N1CCN(C(=O)CCOCCOCCOCCOCCNc3cccc4c3C(=O)N(C3CCC(=O)NC3=O)C4=O)CC1)C(C)(C)c1[nH]c3cc(C#N)ccc3c1C2=O (stereo not drawn) [SIAIS164014, 8-(4-(1-((2-(2,6-dioxopiperidin-3-yl)-1,3-dioxoisoindolin-4-yl)amino)-3,6,9,12-tetraoxapentadecan-15-oyl)piperazin-1-yl)-9-ethyl-6,6-dimethyl-11-oxo-6,11-dihydro-5H-benzo[b]carbazole-3-carbonitrile]		100 to 500	81		
CCc1cc2c(cc1N1CCN(C(=O)CCCNc3cccc4c3C(=O)N(C3CCC(=O)NC3=O)C4=O)CC1)C(C)(C)c1[nH]c3cc(C#N)ccc3c1C2=O (stereo not drawn) [SIAIS164024, 8-(4-(4-((2-(2,6-dioxopiperidin-3-yl)-1,3-dioxoisoindolin-4-yl)amino)butanoyl)piperazin-1-yl)-9-ethyl-6,6-dimethyl-11-oxo-6,11-dihydro-5H-benzo[b]carbazole-3-carbonitrile]		1 to 10	35.8	inhibited	reduced the protein level of ALK protein
CCc1cc2c(cc1N1CCN(C(=O)CCCCCNc3cccc4c3C(=O)N(C3CCC(=O)NC3=O)C4=O)CC1)C(C)(C)c1[nH]c3cc(C#N)ccc3c1C2=O (stereo not drawn) [SIAIS164026, 8-(4-(6-((2-(2,6-dioxopiperidin-3-yl)-1,3-dioxoisoindolin-4-yl)amino)hexanoyl)piperazin-1-yl)-9-ethyl-6,6-dimethyl-11-oxo-6,11-dihydro-5H-benzo[b]carbazole-3-carbonitrile]		1 to 10	148	inhibited	reduced the protein level of ALK protein
CCc1cc2c(cc1N1CCN(C(=O)CCOCCOCCC(=O)N[C@H](C(=O)N3C[C@H](O)C[C@H]3C(=O)NCc3ccc(-c4scnc4C)cc3)C(C)(C)C)CC1)C(C)(C)c1[nH]c3cc(C#N)ccc3c1C2=O [SIAIS164036, (2S,4R)-1-((S)-2-(3-(2-(3-(4-(3-cyano-9-ethyl-6,6-dimethyl-11-oxo-6,11-dihydro-5H-benzo[b]carbazol-8-yl)piperazin-1-yl)-3-oxopropoxy)ethoxy)propanamido)-3,3-dimethylbutanoyl)-4-hydroxy-N-(4-(4-methylthiazol-5-yl)benzyl)pyrrolidine-2-carboxamide]		20 to 100	132		
CCc1cc2c(cc1N1CCN(C(=O)CCCC(=O)N[C@H](C(=O)N3C[C@H](O)C[C@H]3C(=O)NCc3ccc(-c4scnc4C)cc3)C(C)(C)C)CC1)C(C)(C)c1[nH]c3cc(C#N)ccc3c1C2=O [SIAIS164094, (2S,4R)-1-((S)-2-(5-(4-(3-cyano-9-ethyl-6,6-dimethyl-11-oxo-6,11-dihydro-5H-benzo[b]carbazol-8-yl)piperazin-1-yl)-5-oxopentanamido)-3,3-dimethylbutanoyl)-4-hydroxy-N-(4-(4-methylthiazol-5-yl)benzyl)pyrrolidine-2-carboxamide]		20 to 100	124		
CCc1cc2c(cc1N1CCN(C(=O)CCCc3cn(CCCC(=O)N[C@H](C(=O)N4C[C@H](O)C[C@H]4C(=O)NCc4ccc(-c5scnc5C)cc4)C(C)(C)C)nn3)CC1)C(C)(C)c1[nH]c3cc(C#N)ccc3c1C2=O [SIAIS164155, (2S,4R)-1-((S)-2-(4-(4-(4-(4-(3-cyano-9-ethyl-6,6-dimethyl-11-oxo-6,11-dihydro-5H-benzo[b]carbazol-8-yl)piperazin-1-yl)-4-oxobutyl)-1H-1,2,3-triazol-1-yl)butanamido)-3,3-dimethylbutanoyl)-4-hydroxy-N-(4-(4-methylthiazol-5-yl)benzyl)pyrrolidine-2-carboxamide]		10 to 50	104		
COc1cc(N2CCC(NC(=O)CCC(=O)NCCNc3cccc4c3C(=O)N(C3CCC(=O)NC3=O)C4=O)CC2)ccc1Nc1ncc(Cl)c(Nc2ccccc2P(C)(C)=O)n1 (stereo not drawn) [SIAIS164157, N1-(1-(4-((5-chloro-4-((2-(dimethylphosphoryl)phenyl)amino)pyrimidin-2-yl)amino)-3-methoxyphenyl)piperidin-4-yl)-N4-(2-((2-(2,6-dioxopiperidin-3-yl)-1,3-dioxoisoindolin-4-yl)amino)ethyl)succinamide]	15.7 ± 15	1 to 50			
COc1cc(N2CCN(C(=O)CCOCCOCCC(=O)N[C@H](C(=O)N3C[C@H](O)C[C@H]3C(=O)NCc3ccc(-c4scnc4C)cc3)C(C)(C)C)CC2)ccc1Nc1ncc(Cl)c(Nc2ccccc2P(C)(C)=O)n1 [SIAIS197079, (2S,4R)-1-((S)-2-(3-(2-(3-(4-(4-((5-chloro-4-((2-(dimethylphosphoryl)phenyl)amino)pyrimidin-2-yl)amino)-3-methoxyphenyl)piperazin-1-yl)-3-oxopropoxy)ethoxy)propanamido)-3,3-dimethylbutanoyl)-4-hydroxy-N-(4-(4-methylthiazol-5-yl)benzyl)pyrrolidine-2-carboxamide]	15.9 ± 8.5	50 to 500			
